Source: ChEMBL document CHEMBL4270599, “Synthesis of a 3'-C-ethynyl-β-d-ribofuranose purine nucleoside library: Discovery of C7-deazapurine analogs as potent antiproliferative nucleosides” (Eur J Med Chem, 2018)

Assays:
Assay type in all cases: functional
[1] = tested on: CCRF-CEM; test: Cytotoxicity against human CCRF-CEM cells after 48 hrs by SRB assay
[2] = tested on: RPMI-8226; test: Cytotoxicity against human RPMI8226 cells after 48 hrs by SRB assay; settings: RPMI-8226, 48 h; for CC50: read-out: LC50 (the source's name)
[3] = tested on: NCI-H226; test: Cytotoxicity against human NCI-H226 cells after 48 hrs by SRB assay; settings: NCI-H226, 48 h; for CC50: read-out: pLC50 (the source's name) (converted)
[4] = tested on: Malme-3M; test: Cytotoxicity against human MALME-3M cells after 48 hrs by SRB assay
[5] = tested on: M14; test: Cytotoxicity against human M14 cells after 48 hrs by SRB assay; settings: M14, 48 h; for CC50: read-out: LC50 (the source's name)
[6] = tested on: MDA-MB-435; test: Cytotoxicity against human MDA-MB-435 cells after 48 hrs by SRB assay; settings: MDA-MB-435, 48 h; for CC50: read-out: pLC50 (the source's name) (converted)
[7] = tested on: OVCAR-8; test: Cytotoxicity against human OVCAR8 cells after 48 hrs by SRB assay; settings: OVCAR-8, 48 h
[8] = tested on: SK-OV-3; test: Cytotoxicity against human SKOV3 cells after 48 hrs by SRB assay; settings: SK-OV-3, 48 h; for CC50: read-out: LC50 (the source's name)
[9] = tested on: MDA-MB-468; test: Cytotoxicity against human MDA-MB-468 cells after 48 hrs by SRB assay; settings: MDA-MB-468, 48 h; for CC50: read-out: pLC50 (the source's name) (converted)
[10] = tested on: NCI-H460; test: Growth inhibition of human NCI-H460 cells assessed as cell growth at 10^-8 M incubated for 48 hrs by sulforhodamine B assay relative to control; settings: NCI-H460, 48 h, read-out: Activity
[11] = tested on: SF-268; test: Growth inhibition of human SF268 cells assessed as cell growth at 10^-8 M incubated for 48 hrs by sulforhodamine B assay relative to control; settings: SF-268, 48 h, read-out: Activity
[12] = tested on: SNB-75; test: Growth inhibition of human SNB75 cells assessed as cell growth at 10^-8 M incubated for 48 hrs by sulforhodamine B assay relative to control; settings: SNB-75, 48 h, read-out: Activity
[13] = tested on: PC-3; test: Growth inhibition of human PC3 cells assessed as cell growth at 10^-8 M incubated for 48 hrs by sulforhodamine B assay relative to control; settings: PC-3, 48 h, read-out: Activity
[14] = tested on: MCF7; test: Growth inhibition of human MCF7 cells assessed as cell growth at 10^-8 M incubated for 48 hrs by sulforhodamine B assay relative to control; settings: MCF7, 48 h, read-out: Activity
[15] = tested on: MDA-MB-468; test: Growth inhibition of human MDA-MB-468 cells assessed as cell growth at 10^-8 M incubated for 48 hrs by sulforhodamine B assay relative to control; settings: MDA-MB-468, 48 h, read-out: Activity
[16] = tested on: CCRF-CEM; test: Growth inhibition of human CCRF-CEM cells assessed as cell growth at 10^-7 M incubated for 48 hrs by sulforhodamine B assay relative to control; settings: read-out: Activity
[17] = tested on: SW-620; test: Growth inhibition of human SW620 cells assessed as cell growth at 10^-7 M incubated for 48 hrs by sulforhodamine B assay relative to control; settings: SW-620, 48 h, read-out: Activity
[18] = tested on: LOX IMVI; test: Growth inhibition of human LOXIMVI cells assessed as cell growth at 10^-7 M incubated for 48 hrs by sulforhodamine B assay relative to control; settings: read-out: Activity
[19] = tested on: UACC-257; test: Growth inhibition of human UACC257 cells assessed as cell growth at 10^-7 M incubated for 48 hrs by sulforhodamine B assay relative to control; settings: UACC-257, 48 h, read-out: Activity
[20] = tested on: OVCAR-5; test: Growth inhibition of human OVCAR5 cells assessed as cell growth at 10^-7 M incubated for 48 hrs by sulforhodamine B assay relative to control; settings: OVCAR-5, 48 h, read-out: Activity
[21] = tested on: T47D; test: Growth inhibition of human T47D cells assessed as cell growth at 10^-7 M incubated for 48 hrs by sulforhodamine B assay relative to control; settings: read-out: Activity
[22] = tested on: MDA-MB-435; test: Growth inhibition of human MDA-MB-435 cells assessed as cell growth at 10^-6 M incubated for 48 hrs by sulforhodamine B assay relative to control; settings: MDA-MB-435, 48 h, read-out: Activity
[23] = tested on: NCI/ADR-RES; test: Growth inhibition of human NCI/ADR-RES cells assessed as cell growth at 10^-6 M incubated for 48 hrs by sulforhodamine B assay relative to control; settings: read-out: Activity
[24] = tested on: MOLT-4; test: Growth inhibition of human MOLT4 cells assessed as cell growth at 10^-5 M incubated for 48 hrs by sulforhodamine B assay relative to control; settings: MOLT-4, 48 h, read-out: Activity
[25] = tested on: SR; test: Growth inhibition of human SR cells assessed as cell growth at 10^-5 M incubated for 48 hrs by sulforhodamine B assay relative to control; settings: read-out: Activity
[26] = tested on: COLO 205; test: Growth inhibition of human COLO205 cells assessed as cell growth at 10^-5 M incubated for 48 hrs by sulforhodamine B assay relative to control; settings: COLO 205, 48 h, read-out: Activity
[27] = tested on: OVCAR-5; test: Growth inhibition of human OVCAR5 cells assessed as cell growth at 10^-5 M incubated for 48 hrs by sulforhodamine B assay relative to control; settings: OVCAR-5, 48 h, read-out: Activity
[28] = tested on: DU-145; test: Growth inhibition of human DU145 cells assessed as cell growth at 10^-5 M incubated for 48 hrs by sulforhodamine B assay relative to control; settings: DU-145, 48 h, read-out: Activity
[29] = tested on: MDA-MB-231; test: Growth inhibition of human MDA-MB-231 cells assessed as cell growth at 10^-5 M incubated for 48 hrs by sulforhodamine B assay relative to control; settings: MDA-MB-231, 48 h, read-out: Activity
[30] = tested on: Hs-578T; test: Growth inhibition of human Hs 578T cells assessed as cell growth at 10^-5 M incubated for 48 hrs by sulforhodamine B assay relative to control; settings: read-out: Activity
[31] = tested on: CCRF-CEM; test: Growth inhibition of human CCRF-CEM cells assessed as cell growth at 10^-4 M incubated for 48 hrs by sulforhodamine B assay relative to control; settings: read-out: Activity
[32] = tested on: KM12; test: Growth inhibition of human KM12 cells assessed as cell growth at 10^-4 M incubated for 48 hrs by sulforhodamine B assay relative to control; settings: KM12, 48 h, read-out: Activity
[33] = read-out: pLC50 (the source's name) (converted)
[34] = read-out: LC50 (the source's name)

## C#C[C@@]1(O)[C@@H](CO)O[C@@H](n2cc(F)c3c(N)ncnc32)[C@@H]1O
[1]; read-out: TGI
  TGI: > 100000 nM
[1]; read-out: pGI50 (converted)
  GI50: 339 nM
[1]; [33]
  CC50: > 100000 nM
[1]; read-out: pTGI
  TGI: > 100000 nM
[2]
  CC50: > 100000 nM
[2]; read-out: TGI
  TGI: 1980 nM
[2]; read-out: pGI50 (converted)
  GI50: 219 nM
[2]; read-out: pTGI (converted)
  TGI: 2000 nM
[3]; read-out: TGI
  TGI: 2630 nM
[3]; read-out: pGI50 (converted)
  GI50: 525 nM
[3]
  CC50: > 100000 nM
[3]; read-out: pTGI (converted)
  TGI: 2630 nM
[4]; read-out: TGI
  TGI: 1810 nM
[4]; read-out: pGI50 (converted)
  GI50: 363 nM
[4]; [33]
  CC50: > 100000 nM
[4]; read-out: pTGI (converted)
  TGI: 1820 nM
[5]
  CC50: > 100000 nM
[5]; read-out: TGI
  TGI: 2390 nM
[5]; read-out: pGI50 (converted)
  GI50: 479 nM
[5]; read-out: pTGI (converted)
  TGI: 2400 nM
[6]; read-out: TGI
  TGI: 3260 nM
[6]; read-out: pGI50 (converted)
  GI50: 417 nM
[6]
  CC50: 45700 nM
[6]; read-out: pTGI (converted)
  TGI: 3240 nM
[7]; read-out: TGI
  TGI: 3690 nM
[7]; read-out: pGI50 (converted)
  GI50: 257 nM
[7]; [33]
  CC50: > 100000 nM
[7]; read-out: pTGI (converted)
  TGI: 3720 nM
[8]
  CC50: > 100000 nM
[8]; read-out: TGI
  TGI: 2090 nM
[8]; read-out: pGI50 (converted)
  GI50: 288 nM
[8]; read-out: pTGI (converted)
  TGI: 2090 nM
[9]; read-out: TGI
  TGI: 1530 nM
[9]; read-out: pGI50 (converted)
  GI50: 302 nM
[9]
  CC50: 7940 nM
[9]; read-out: pTGI (converted)
  TGI: 1550 nM
[10]
  growth at 0.01 µM: 100%
[11]
  growth at 0.01 µM: 100%
[12]
  growth at 0.01 µM: 92%
[13]
  growth at 0.01 µM: 92%
[14]
  growth at 0.01 µM: 89%
[15]
  growth at 0.01 µM: 92%
[16]
  growth at 0.1 µM: 81%
[17]
  growth at 0.1 µM: 61%
[18]
  growth at 0.1 µM: 87%
[19]
  growth at 0.1 µM: 85%
[20]
  growth at 0.1 µM: 108%
[21]
  growth at 0.1 µM: 80%
[22]
  growth at 1 µM: 28%
[23]
  growth at 1 µM: 22%
[24]
  growth at 10 µM: 2%
[25]
  growth at 10 µM: 4%
[26]
  growth at 10 µM: -52%
[27]
  growth at 10 µM: 5%
[28]
  growth at 10 µM: 1%
[29]
  growth at 10 µM: -24%
[30]
  growth at 10 µM: 18%
[31]
  growth at 100 µM: 1%
[32]
  growth at 100 µM: -10%

## C#C[C@@]1(O)[C@@H](CO)O[C@@H](n2cc(Br)c3c(N)ncnc32)[C@@H]1O
[1]; read-out: GI50
  GI50: 140 to 285 nM
[1]; [34]
  CC50: > 100000 nM
[1]; read-out: TGI
  TGI: > 100000 nM
[1]; read-out: pTGI
  TGI: > 100000 nM
[2]; read-out: GI50
  GI50: 67.3 to 242 nM
[2]
  CC50: > 100000 nM
[2]; read-out: TGI
  TGI: 733 to 934 nM
[3]; read-out: GI50
  GI50: 373 to 4420 nM
[3]; read-out: TGI
  TGI: 6370 to 100000 nM
[3]
  CC50: > 100000 nM
[4]; read-out: GI50
  GI50: 627 to 799 nM
[4]; [34]
  CC50: 81900 to 82600 nM
[4]; read-out: TGI
  TGI: 12200 to 14100 nM
[5]; read-out: GI50
  GI50: 145 to 353 nM
[5]
  CC50: 75300 to 100000 nM
[5]; read-out: TGI
  TGI: 12900 to 14200 nM
[6]; read-out: GI50
  GI50: 105 to 294 nM
[6]; read-out: TGI
  TGI: 5360 to 19700 nM
[6]
  CC50: > 100000 nM
[7]; read-out: GI50
  GI50: 13.5 to 62.5 nM
[7]; [34]
  CC50: > 100000 nM
[7]; read-out: TGI
  TGI: 1120 nM
[7]; read-out: pTGI (converted)
  TGI: 1120 nM
[8]; read-out: GI50
  GI50: 44.1 to 153 nM
[8]
  CC50: > 100000 nM
[8]; read-out: TGI
  TGI: 439 nM
[8]; read-out: pTGI (converted)
  TGI: 437 nM
[9]; read-out: GI50
  GI50: 115 to 219 nM
[9]; read-out: TGI
  TGI: 352 to 637 nM
[9]
  CC50: 1910 nM
[10]
  growth at 0.01 µM: 63 to 104%
[11]
  growth at 0.01 µM: 83 to 93%
[12]
  growth at 0.01 µM: 73 to 89%
[13]
  growth at 0.01 µM: 86 to 92%
[14]
  growth at 0.01 µM: 60 to 74%
[15]
  growth at 0.01 µM: 88 to 99%
[16]
  growth at 0.1 µM: 58 to 83%
[17]
  growth at 0.1 µM: 18 to 45%
[18]
  growth at 0.1 µM: 20 to 52%
[19]
  growth at 0.1 µM: 70 to 93%
[20]
  growth at 0.1 µM: 62 to 97%
[21]
  growth at 0.1 µM: 5 to 32%
[22]
  growth at 1 µM: 15 to 28%
[23]
  growth at 1 µM: 6%
[25]
  growth at 10 µM: 1 to 5%
[27]
  growth at 10 µM: 11 to 12%
[28]
  growth at 10 µM: 7 to 10%
[29]
  growth at 10 µM: 1 to 6%
[30]
  growth at 10 µM: 3 to 9%
[31]
  growth at 100 µM: 3 to 4%
[32]
  growth at 100 µM: 2 to 10%
